{"source": "ChEMBL document CHEMBL4270493", "about": "“Recent updates on third generation EGFR inhibitors and emergence of fourth generation EGFR inhibitors to combat C797S resistance” (Eur J Med Chem, 2017)", "key": {"Homo sapiens [1]": {"species_on_record": "Homo sapiens", "experiment": "Toxicity in patient with EGFR T790M mutant NSCLC assessed as induction of grade 3 QTc prolongation at 500 mg BID during phase 1/2 study", "format": "organism-based", "settings": "in vivo"}, "Homo sapiens [2]": {"species_on_record": "Homo sapiens", "experiment": "Toxicity in patient with EGFR T790M mutant NSCLC assessed as induction of grade 3 hyperglycemia at 500 mg BID during phase 1/2 study", "format": "organism-based", "settings": "in vivo"}, "Homo sapiens [3]": {"species_on_record": "Homo sapiens", "experiment": "Antitumor activity in patient with EGFR T790M mutant NSCLC assessed as objective response rate at 500 mg BID during phase 1/2 study", "format": "functional"}, "Homo sapiens [4]": {"species_on_record": "Homo sapiens", "experiment": "Antitumor activity in patient with EGFR T790M mutant NSCLC assessed as disease control rate at 500 mg BID during phase 1/2 study", "format": "functional"}, "Homo sapiens [5]": {"species_on_record": "Homo sapiens", "experiment": "Toxicity in patient with EGFR T790M mutant NSCLC assessed as drug discontinuation rate at 500 mg BID during phase 1/2 study", "format": "organism-based", "settings": "in vivo"}, "Homo sapiens [6]": {"species_on_record": "Homo sapiens", "experiment": "Antitumor activity in patient with EGFR T790M mutant negative NSCLC assessed as overall response rate at 500 mg BID during phase 1/2 study", "format": "functional"}}, "data": [{"smiles": "C=CC(=O)Nc1cccc(Nc2nc(Nc3ccc(N4CCN(C(C)=O)CC4)cc3OC)ncc2C(F)(F)F)c1", "note": "[ROCILETINIB]", "values": [{"measurement": "Activity", "setting": "Homo sapiens [1]", "value": 2.5, "unit": "%"}, {"measurement": "Activity", "setting": "Homo sapiens [2]", "value": 17, "unit": "%"}, {"measurement": "Activity", "setting": "Homo sapiens [3]", "value": 60, "unit": "%"}, {"measurement": "Activity", "setting": "Homo sapiens [4]", "value": 90, "unit": "%"}, {"measurement": "Activity", "setting": "Homo sapiens [5]", "value": 2.5, "unit": "%"}, {"measurement": "Activity", "setting": "Homo sapiens [6]", "value": 37, "unit": "%"}]}]}
